The record followed here is article PMC12797238 (ACS Infectious Diseases, 2025).

Assay [1] has as its system T. brucei 427 bloodstream form mitochondria. Nature of the assay: Mitochondrial membrane potential in T. brucei (TMRE, flow cytometry). It counts as cell-based, Trypanosoma brucei. The conditions noted are these: 24 h at 3× EC50. As for the experimental part: The mitochondrial membrane potential of T. brucei 427 bloodstream form was assessed using the fluorescent probe TMRE (Thermo Fisher Scientific) as described in ref . […] Untreated cells and cells preincubated with a 50 μM CCCP uncoupler for 30 min were used as negative and positive controls, respectively. Approximately 1 × 10^6 cells were incubated with 60 nM TMRE for 30 min, washed 1× with sterile PBS, and 5,000 events were measured on a Guava EasyCyte 8HT flow cytometer (Luminex) using a 488 nm excitation laser and a 583/26 nm detector. Median fluorescence was plotted against an untreated culture using Prism 8.0 (GraphPad Software), and statistical significance was determined using RM one-way ANOVA with Geisser–Greenhouse correction. The experiment was performed in three biologically independent replicates.
(In general: Flow cytometry measures light scatter and fluorescence of single cells or particles in a stream.)

Assay [2] has as its system Babesia divergens intracellular stages. Description: Drug sensitivity assay, dose–response curves, B. divergens. In kind it is cell-based. The conditions noted are these: for EC50: intracellular stages, mean, n ≥ 3; for B. divergens selectivity: relative to fibroblasts. An excerpt: (§1) Human fibroblasts, T. brucei, T. gambiense, P. falciparum, L. mexicana, and B. divergens were cultivated as described previously, and dose–response curves were obtained by their cultivation on 96 well plates in a 2-fold seriel dilution of the appropriate drug.

In assay [3] the test system is Toxoplasma gondii tachyzoites (RH strain), intracellular stages. Nature of the assay: T. gondii lytic cycle plaque assay in HFF monolayers. The conditions noted are these: for EC50: intracellular stages, plaque assay in HFFs, 7 days, n ≥ 3; for T. gondii selectivity: relative to fibroblasts. In kind it is cell-based. The method, then:
T. gondii tachyzoites of the RH strain were routinely maintained through passages in a human foreskin fibroblasts (HFFs) monolayer (ATCC CRL-1634). HFFs and parasites were cultured in standard Dulbecco’s Modified Eagle Medium (DMEM), supplemented with 5% decomplemented fetal bovine serum (FBS), 2 mM L-glutamine, 100 U/mL penicillin, and 100 μg/mL streptomycin (Gibco) at 37 °C and with 5% CO2 in an incubator with a controlled atmosphere.
The lytic cycle of T. gondii tachyzoites was assessed by a plaque assay as described previously. Briefly, tachyzoites were allowed to invade monolayers of HFFs for 3 h before addition of the compounds or the DMSO vehicle and were subsequently cultivated for 7 days at 37 °C and 5% CO2. They were then fixed with 4% (w/v) paraformaldehyde (PFA, diluted in phosphate-buffered saline (PBS)) for 20 min and stained with a 0.1% crystal violet solution (V5265, Sigma-Aldrich), washed, and air-dried before imaging under an Olympus MVX10 microscope.
Figure S1. EC50 determination of selected compounds in Toxoplasma.
B) EC50 curves based on plaque
area measured from three independent plaque assays. Data are mean ± standard deviation. C)
vacuoles were counted for each con dition. Values represented are mean ± standard deviation of […]

Assay [4] has as its system Toxoplasma tachyzoites mitochondrion. Nature of the assay: Toxoplasma mitochondrial membrane potential (MitoTracker, cytometry and microscopy). In kind it is cell-based, Toxoplasma gondii. The note with it: 24 h at 3× EC50; for T. gondii mitochondrial membrane potential, flow cytometric quantification of Mitotracker labeling: DFX at 60 nM; for Mitotracker staining of T. gondii, microscopic observation: FCCP as uncoupler control. As for the experimental part: We used the MitoTracker Deep Red FM fluorescent probe (Invitrogen) to assess the mitochondrial membrane potential in Toxoplasma tachyzoites. […] After another 24 h of culture at 37 °C and 5% CO2, Mitotracker labeling was performed as described in the protocol provided by the manufacturer, with a 45 min incubation at 37 °C and 5% CO2 of the reconstituted dye diluted to 1/1000 in culture medium. Parasites were then fixed for 30 min in 4% (w/v) PFA (diluted in PBS), washed twice in PBS, scraped, syringed (with a 25 G needle), filtered on a 40 μm membrane, and resuspended in 1 mL of PBS. Parasites were then analyzed with an Aurora spectral cytometer (Cytek), using a 633 nm excitation laser and a 665 nm detector. 10,000 events were recorded. Mean fluorescence was plotted against vehicle-treated culture parasites using Prism 8.0 (GraphPad Software), and statistical significance was determined using one-way ANOVA with Tukey’s multiple-comparison test. The experiment was performed for three biologically independent replicates. For the membrane depolarization control, parasites were treated with 10 μM FCCP for 30 min prior to and during incubation with the Mitotracker dye.
Intracellular parasites and the host cell monolayer were then fixed 24 h later with 4% (w/v) PFA (diluted in PBS) for 20 min, and after fixation, cells were permeabilized with 0.3% (v/v) Triton X-100 (diluted in PBS) for 10 min. Costaining with the anti-F1β ATPase mitochondrial marker was performed as described below.

Assay [5] concerns Plasmodium falciparum intracellular stages. Nature of the assay: Drug sensitivity assay, dose–response curves, P. falciparum. It counts as cell-based. The conditions noted are these: for EC50: intracellular stages, mean, n ≥ 3; for P. falciparum selectivity: relative to fibroblasts.
Text: as §1

Assay [6] concerns Human BJ Fibroblast. Nature of the assay: Drug sensitivity assay, dose–response curves, human BJ fibroblasts. It counts as cell-based. The conditions noted are these: mean, n ≥ 3.
Text: as §1

Assay [7] has as its system T. brucei 427 bloodstream forms, protein-bound iron. Description: Iron distribution in T. brucei (55Fe, blue native electrophoresis, phosphor imaging). The conditions noted are these: T. brucei preincubated with 55Fe; 8 h exposure; EC90 concentrations for 14 and 15. It counts as cell-based, Trypanosoma brucei. The method, then:
The assay was performed as described in ref . T. brucei 427 bloodstream forms were grown in HMI-9 medium supplemented with 0.5 μM ^55Fe (29 600 MBq mg^–1) in the form of ferric citrate (1:20) and incubated for 24 h. […] Untreated cells were used as a control. After incubation, the cells were harvested by centrifugation and washed three times with NaCl–HEPES buffer (140 mM NaCl, 10 mM HEPES, pH 7.4). Cells were lysed by sonication in NaCl–HEPES buffer containing 1% digitonin and cOmplete EDTA-free protease inhibitor cocktail (Roche). Gels were vacuum-dried, autoradiographed for 5 days using a BAS-IP TR 2025 E tritium storage phosphor screen (GE Healthcare), and visualized with Typhoon FLA 7000 (GE Healthcare).

Assay [8] has as its system T. gondii mitochondrion. Nature of the assay: Toxoplasma immunofluorescence assay of organelle morphology. It counts as cell-based, Toxoplasma gondii. The conditions noted are these: 24 h at 3× EC50; for morphology of the T. gondii mitochondrion: DFX at 60 nM. As for the experimental part: For IFAs to assess organelle morphology, coverslips seeded with HFFs were infected with T. gondii tachyzoites, and 3 h later, compounds were added (at 3 times their respective EC50). Intracellular parasites and host cell monolayers were then fixed 24 h later with 4% (w/v) PFA (diluted in PBS) for 20 min. After fixation, cells were permeabilized with 0.3% (v/v) Triton X-100 (diluted in PBS) for 10 min. Coverslips were blocked with 2% (w/v) bovine serum albumin (BSA) for 1 h prior to immunolabeling with a primary antibody for 1 h. After 3 washes in PBS, a corresponding secondary antibody was incubated for 1 h. Coverslips were then incubated with 1 μg/mL of Hoechst stain for 5 min before 3 washes in PBS and, finally, mounted using Immu-Mount (Thermo Fisher) onto microscope slides. Primary antibodies used were prepared in 2% BSA (diluted in PBS) and used at the following concentrations: the apicoplast was stained using rabbit anti-PDH-E2 (1:500), the mitochondrion was stained using mouse anti-F1β ATPase (1:1000, gift of P. Bradley). Anti-mouse and anti-rabbit secondary antibodies were all from Thermo Fisher and were diluted at 1:4000. Image acquisition was performed with a Zeiss Axio Observer inverted microscope equipped with a Zeiss Axiocam 712 camera and 63×/1.4 or 100×/1.4 Oil Plan Achromat objectives. Images were processed with Zen Blue v3.6 software (Zeiss). Z-stack acquisitions were processed by a maximum-intensity orthogonal projection. Adjustments of brightness and contrast were applied uniformly, and paired images were acquired with the same exposure time. Quantifications of mitochondrial morphology were performed by microscopic observation of a series of at least 100 parasites, and data from three independent biological replicates was acquired and plotted using Prism 8.0 (GraphPad Software). Statistical significance was determined using one-way ANOVA with Tukey’s multiple-comparison test.

Assay [9] relates to T. gondii tachyzoites. The conditions noted are these: 24 h treatment at 3× EC50.
Description: Parasites were allowed to invade an HFF monolayer on coverslips for 3 h before addition of the compounds (at 3 times their respective EC50) and left to grow for 24 h before being fixed and performing parasites immunodetection was by IFA with a mouse anti-SAG1 antibody, as described previously. The number of parasites per vacuole was counted and scored. Independent experiments were conducted 3 times, and 200 random vacuoles were counted for each condition.
Replication assay of T. gondii tachyzoites, which were allowed to invade HFF -coated coverslips,
then treated for 24 h with the compounds at 3 times the EC50 or DMSO vehicle, after which number
of parasites per vacuole was quantified for each condition and expressed as a percentage, 200
the compounds, using two -way ANOVA with Dunnett’s multiple comparison test.
Assay [10] deals with Trypanosoma brucei bloodstream forms. Nature of the assay: Drug sensitivity assay, dose–response curves, T. brucei. It counts as cell-based. The conditions noted are these: for EC50: bloodstream forms, mean, n ≥ 3.
Text: as §1

Assay [11] relates to Leishmania mexicana axenic amastigotes. Nature of the assay: Drug sensitivity assay, dose–response curves, L. mexicana. It counts as cell-based. The note with it: for EC50: axenic amastigotes, mean, n ≥ 3; for L. mexicana selectivity: relative to fibroblasts.
Text: as §1

Assay [12] deals with Trypanosoma gambiense bloodstream forms. Nature of the assay: Drug sensitivity assay, dose–response curves, T. gambiense. In kind it is cell-based. The note with it: for EC50: bloodstream forms, mean, n ≥ 3; for T. gambiense selectivity: relative to fibroblasts.
Text: as §1

Several values for one entry are separate records, joined by “and”; a condition that tells them apart may be missing. Equal values may be shown once.

Broadly, the EC50 is the concentration needed to bring the measured effect to its halfway point. Regarding `O=C(NCCCCCCCCCC[P+](c1ccccc1)(c1ccccc1)c1ccccc1)c1ccc(-n2nc(-c3ccccc3O)nc2-c2ccccc2O)cc1.[Cl-]` [compound 14, triphenylphosphine-C10-DFX], the “mitochondrial membrane potential of T. brucei (relative to untreated)” value in assay [1] is given as “less than 50%”. Also, the EC50 in [2] came out at 41.2 nM; in [3], 17 nM; in assay [5] it was 54.8 nM; in assay [6] it was 1710 nM; in assay [10] it was 4.2 nM; in assay [10] (listed as mitoDFX) it was 4 nM. The results for the EC50 in assay [11] and in assay [12] were 52 nM and 10.4 nM, respectively. In assay [2], this compound displayed a B. divergens selectivity of 42. The compound also displayed a T. gondii selectivity in assay [3] of 101. Further, in assay [4], the “T. gondii mitochondrial membrane potential, flow cytometric quantification of Mitotracker labeling” value was “most impactful”. In [4], the “Mitotracker staining of T. gondii, microscopic observation” value was “strong decrease in Mitotracker staining”. The P. falciparum selectivity in assay [5] is on record as 31. Further, the “change in overall protein-bound iron distribution” value in assay [7] is “neither mitoDFX nor the nonchelating compound 15 did cause any detectable change”. Further, the “quantified mitochondrial morphology change (fragmented/collapsed) by IFA” value in [8] is reported as “caused the collapse of most T. gondii mitochondria”. Moreover, the “morphology of the T. gondii mitochondrion” value in assay [8] is listed as “altered the morphology of the organelle”. In assay [9], the “impact on T. gondii replication (parasites per vacuole)” value was “particularly strong”. The T. brucei selectivity in assay [10] (relative to human BJ fibroblast EC50, listed as mitoDFX) is > 300. Moreover, in [11], the L. mexicana selectivity came to 33. In [12], this compound had a T. gambiense selectivity of 165.
On to `CC(C)(C)OC(=O)NNc1ccc(C(=O)NCCCCCCCCCC[P+](c2ccccc2)(c2ccccc2)c2ccccc2)cc1.[Cl-]` [compound 15, triphenylphosphine-C10-NHCOBocFenylhydrazine], for which, in [1], the “mitochondrial membrane potential of T. brucei (relative to untreated)” value was “less than 50%”. For the same compound, the EC50 in [2] is 76.2 nM; in [3] it was 350 nM; in assay [5], 311 nM; in assay [6] it was 7400 nM; in [10] it was 37 nM and 37.5 nM; in [11] it was 348 nM. In [12], this compound gave an EC50 of 60 nM. Further, in assay [2], the B. divergens selectivity came out at 96. The same compound registered a T. gondii selectivity in [3] of 21. Besides, the “T. gondii mitochondrial membrane potential, flow cytometric quantification of Mitotracker labeling” value in [4] is “most impactful”. In assay [4], the “Mitotracker staining of T. gondii, microscopic observation” value is recorded as “strong decrease in Mitotracker staining”. The P. falciparum selectivity in assay [5] came out at 23. Further, in assay [7], the “change in overall protein-bound iron distribution” value was “neither mitoDFX nor the nonchelating compound 15 did cause any detectable change”. In addition, the “morphology of the T. gondii mitochondrion” value in assay [8] is listed as “altered the morphology of the organelle”. Further, the L. mexicana selectivity in [11] is 21. In addition, in assay [12], the T. gambiense selectivity was 122.
